Data from PMC10831786 (Virus Research, 2024).

How the values were obtained:
[1] = test system: protein synthesis in Vero E6 cells; assay: Puromycin pulse labeling, protein synthesis in cultured Vero E6 cells; format: cell-based, African green monkey
Description: Vero E6 cells were seeded at 30,000 cells per cm^2 in 6-well plates. […] Control experiments were conducted in medium alone and medium containing cycloheximide or DMSO. After 12 min, cells were washed with 37° PBS and then allowed to recover in drug-free 2 % FBS-EMEM for 30 min. Cell pellets, collected by trypsinization and centrifugation for 5 min at 5 000 rpm at 4 °C, were re-suspended in ice-cold PBS and centrifugation was repeated. Collected cells were stored at −80 °C.
Antibodies used were anti-puromycin monoclonal (TFS; MABE34), goat anti-mouse-HRP (TFS, Invitrogen; G21040), rabbit anti-β-actin (Cell Signaling, 4967S, lot 9) and HRP-conjugated goat-anti-rabbit (Cell Signaling, 7074S, lot 27). Protein extract and immunoblotting methods were done by standard methods reported here as Supplementary Information.
Vero E6 cells were seeded at 30,000 cells per cm^2 in 6-well plates. […] Puromycin labelling protocols have been well established by other laboratories and a general review of the methods has been published^79. Control experiments were conducted in medium alone and medium containing cycloheximide or DMSO. Following incubation with puromycin for 12 min, the medium was quickly removed and cells were washed with warm PBS and then allowed to recover in drug-free 2% FBS-EMEM for 30 min. Cell pellets, collected by trypsinization and centrifugation for 5 min at 5 000 rpm at 4°C, were re-suspended in ice-cold PBS and the centrifugation was repeated. Collected cells were stored at -80°C until subjected to the protein preparation as noted below.
Defrosted cell pellets were re-suspended in 120 µl of RIPA (radio-immunoprecipitation) buffer (Sigma; R0278) containing 7 µl of protease inhibitors (Sigma; P8340). Samples were incubated on ice for 40 min with occasional gentle mixing. Cell debris was removed by a 20 min centrifugation at 16,000 g at 4°C and supernatants were stored at -80°C. Protein was measured by the Pierce^TM bicinchoninic acid (BCA) assay (Thermo Fisher Scientific [TFS], MA, USA; 23250), using bovine serum albumin as a standard, according to protocols recommended by the manufacturer.
For immunoblotting, 10 µg of protein was combined with Laemmli buffer containing 10% β-mercaptoethanol, heated at 95°C for 5 min and loaded on 4-20% Mini-PROTEAN® TGX™ precast protein gels. Samples were resolved by electrophoresis in Tris-Gly-SDS buffer and transferred to nitrocellulose membranes. Transfer was conducted in Tris-Gly buffer containing 20% methanol at 4-6 V/cm^2 for one hour. Membranes were blocked in 10 mM sodium phosphate buffer containing 150 mM NaCl (pH 7.8), 5% milk and 0.1% TWEEN20 (PBST) at room temperature for at least one hour, and then incubated overnight with primary anti-puromycin antibodies (TFS; MABE343 mouse monoclonal antibodies clone 12D10; 1:12,500) at 4°C. Membranes were washed for five minutes three times in PBST and incubated with secondary goat anti-mouse horseradish peroxidase (HRP) -conjugated antibodies (TFS, Invitrogen; G21040; 1:25,000) for 90 min. After three more rounds of washing as above, membranes were incubated with an HRP substrate (TFS; 34077) for one minute and chemoluminescence was visualized by exposing membranes to film for 1, 2, 5, 10 and 30 min.
For β-actin staining, the same membranes used for puromycin immunostaining were washed four times, 5 min each, in 20 mM Tris-buffered saline containing 500 mM sodium chloride (pH 7.5) and 0.1% TWEEN20 (TBST) and stripped by two rounds of 20 and 10 min washes at 50°C in glycine buffer (pH 2.2) containing 0.1 % SDS (W/V) and 1% TWEEN20. Membranes were then washed at room temperature with PBS (3x10 min) and PBST (2x5min). Blocking, primary (1:4,000) and secondary (1:5,000) antibody staining was conducted as above. Primary rabbit anti-β-actin antibodies were obtained from Cell Signaling (4967S, lot 9) and secondary HRP-conjugated goat-anti-rabbit antibodies were from the same company (7074S, lot 27). […]

[2] = biological target: protein synthesis in rabbit reticulocyte lysate; assay: Inhibition of protein synthesis in rabbit reticulocyte lysates (luciferase mRNA translation); format: biochemical
Description: The TnT® Quick Coupled Transcription/Translation System from Promega (WI, USA; L1170) was used to evaluate inhibitory effects of ipecac alkaloids and cycloheximide on protein synthesis. Assay conditions were employed as recommended by the manufacturer. Briefly, reactions (20 μl) contained 80 % TNT Quick master mix, 20 µM methionine, 40 ng/µL luciferase RNA (Promega; L4561), and test chemicals. Samples were incubated at 30 °C for 90 min and diluted 10-fold with PBS. An aliquot (2 μl) was mixed with 20 μl of luciferase assay reagent (Promega; E1500) and luminescence was measured with a Turner Designs luminometer (model TD-20/20).

[3] = MTS assay, growth inhibition and toxicity in non-infected Vero E6 cells; format: cell-based, African green monkey; conditions: African green monkey, non-infected Vero E6 cells, MTS, 72 h; read-out: Fifty percent effect (CC50) in non-infected Vero E6
Description: Detailed methods are provided in Supplementary Information.
Vero E6 and BEC-hACE2 cells were grown to 70-80% density in their maintenance media and exposed to various concentrations of ipecac alkaloids (0.0125 – 200 µM) under standard culture conditions for 48-72 h and 24 h, respectively. Controls with varying amounts of DMSO and no DMSO were included also. Vero E6 cells were incubated with drugs in 2% FBS-EMEM, while BEC-HACE2 cells were grown and treated in complete PCS-300-03 medium with supplements. Similar treatments were also conducted using fully confluent non-growing BEC-hACE2 cells. At the end of the exposure period, MTS reagent (Promega G3580) was added at 1/5th of the medium volume and color was allowed to develop by incubation of the plates for an hour in a cell culture incubator. To stop reactions, SDS was added to a final concentration of 2% and optical density of samples was measured at 450 or 490 nm, depending on the model of spectrophotometer (PharmaciaBiotech, NJ, USA; UV spectrophotometer, model Ultrospec2000) or plate reader (Molecular Devices, CA, USA; model Filter Max F5 Multi-mode microplate reader) available at the time of experiment.

HCoV-OC43 = assay: Antiviral activity against HCoV-OC43 in Vero E6 cells (RT-qPCR of N-gene); format: cell-based
Description: Vero E6 cells (∼5 × 10^4 cells/cm^2 in 24-well plates) were infected with […] at MOI of 20 genomes per cell in 2 % FBS-EMEM at 33 °C, 5 % CO2 with gently mixing for 2 h. Infection medium was removed, cells were washed with fresh medium followed by the addition of compounds at indicated concentrations in 2 % FBS-EMEM. After 72 h, 100 µL of medium was collected and stored at −80 °C for viral RNA isolation and RT-qPCR analysis as detailed below. Drugs were added to the medium prior to and after viral absorption for comparison.
HCoV-OC43 RNA was isolated from 100 µL of medium using Quick-RNA Viral Kit-DX (Zymo Research, CA, USA; R1035). The relative amount of viral genomic RNA was determined with Luna Universal One-Step RT-qPCR Kit (New England Biolabs, MA, USA; E3005). […]
RT-qPCR cycles were set for 20 min at 55 °C, 1 min at 95 °C followed by 45 cycles of 95 °C for 10 s, 48 °C for 30 s and 60 °C for 1 min. The threshold cycle (Ct) for each sample was determined using the Opticon Monitor 3 Program (BioRad). Drug effects on viral propagation were evaluated assuming that a difference of one cycle corresponds to a two-fold difference in the number of copies of viral RNA. Ct values obtained for drug-free samples were considered as 100 % viral propagation.

Row | Structure (SMILES) | IC50 ([1]; Chlorocebus sabaeus, Vero C1008, Vero E6 cells, 1 h exposure, puromycin labeling, read-out: 50 % inhibitory activities, protein synthesis) [nM] | IC50 ([2]; luciferase mRNA, 30 °C, 90 min) [nM] | CC50 at 72 h [3] [nM] | IC50 (HCoV-OC43; Betacoronavirus 1, OC43, Vero C1008, Vero E6, drug added after viral absorption, 72 hpi, read-out: Antiviral IC50) [nM] | Selectivity index, (SI) CC50/IC50 (HCoV-OC43; HCoV-OC43, Vero E6, 72 hpi) | Protein synthesis,% ([1]; Vero E6, 0.1 μM) [%] | Protein synthesis, puromycilation signal ([1]; Vero E6, >1 μM) | Concentration above which inhibition of puromycilation is not sustained ([1]; Vero E6 cells) [µM] | Efficiency as protein synthesis inhibitors ([1]; cultured cells, puromycin labeling) | Inhibitory effects on translation in rabbit reticulocyte lysate ([2]; concentration range 0.1 - 100 μM) | IC50, protein synthesis inhibition in rabbit reticulocyte lysate ([2]; luciferase mRNA, 30 °C, 90 min)
1 | C[C@@H]1C[C@@H]([C@H](O)CC2CC(=O)NC(=O)C2)C(=O)[C@@H](C)C1 [CHX, Cycloheximide, reference compound] | ~30 | 31 |  |  |  |  |  |  |  |  | 
2 | CCC1=C(C[C@@H]2NCCc3cc(OC)c(OC)cc32)C[C@@H]2c3cc(OC)c(OC)cc3CCN2C1 [DHE1, 4H-Benzo[a]quinolizine, 3-ethyl-1,6,7,11b-tetrahydro-9,10-dimethoxy-2-[[(1S)-1,2,3,4-tetrahydro-6,7-dimethoxy-1-isoquinolinyl]methyl]-, (11bR)-] |  |  | 193000 ± 63600 | 1030 ± 446 | 188 | 0 | signal increase | > 1 | inefficient as protein synthesis inhibitors | no inhibitory effects | Not active
